This is an account of results in patent publication US9669003B2, “Use of flavone and flavanone derivatives in preparation of sedative and hypnotic drugs” (priority 2012, dated 2017).

Marks after values point to notes of the source that are not given here.

What all share (format): in vivo
The subject of assay [1] is Kunming mice. Briefly: Influence on hypnosis effect with pentobarbital sodium doses at the threshold (50 mg/kg i.p.). To be noted: pentobarbital sodium 50 mg/kg i.p. 60 min later, x ± s, n = 10. The method, boiled down:
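Pentobarbital sodium (0.3%, 50 mg/kg i.p.) injected 60 min after a single intragastric dose (25, 50, 100 mg/kg, 0.5% CMC-Na vehicle) in Kunming mice, 10 per group, sexes balanced. Onset and length of sleep (righting reflex lost over 1 min) analysed by ANOVA; sleeping incidence by χ2 test.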

Assay [2] concerns Kunming mice. The assay can be described thus: Influence on hypnosis effect with pentobarbital sodium doses below the threshold (25 mg/kg i.p.). To be noted: pentobarbital sodium 25 mg/kg i.p. 60 min later, sleep observed in 30 min, n = 10. An outline of the steps: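 Percentage of mice sleeping within 30 min after subthreshold pentobarbital sodium (25 mg/kg i.p.), defined by loss of righting reflex over 1 min, analysed by χ2. Compound in 0.5% CMC-Na given intragastrically at 25/50/100 mg/kg 60 min before; groups of 10 Kunming mice, both sexes.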

Assay [3] deals with Kunming mice. The assay can be described thus: Influence on autonomic activity of normal mice (ZIL-2 mice autonomic activity meter, counts within 10 min). To be noted: intragastric, x ± s, n = 10; for Times of activities in 1 h after drug administration/10 min: 1 h after administration; for Times of activities in 2 h after drug administration/10 min: 2 h after administration; for Times of activities in 24 h after drug administration/10 min: 24 h after administration. An outline of the steps:
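Activity counts during a 10-min window were taken at 1, 2 and 24 h after dosing in groups of 10 mixed-sex Kunming mice. Compounds were given in 0.5% CMC-Na at 25, 50 or 100 mg/kg. Statistics used Levene's homogeneity test, ANOVA and Dunnett's multiple comparisons.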

[4] abbreviates: 25 mg/kg intragastric single dose.
[5] abbreviates: 50 mg/kg intragastric single dose.
Setting [6] is: 100 mg/kg intragastric single dose.
Setting [7] is: test drug 25 mg/kg intragastric single dose.
Where [8] appears, read: test drug 50 mg/kg intragastric single dose.
Where [9] appears, read: test drug 100 mg/kg intragastric single dose.

For `COc1cc(-c2cc(=O)c3c(OC)c(OC)c(OC)cc3o2)cc(OC)c1OC` [Example 13, 5,6,7,3′,4′,5′-hexamethoxyl-flavone], the duration of sleep came out at 39.25 ± 17.25 min in the assay on Kunming mice [1] (setting [4]), 57.33 ± 29.41 min in the assay on Kunming mice [1] (setting [5]) and 59.23 ± 25.36 min in the assay with Kunming mice [1] (setting [6]). The time to sleep with Kunming mice [1] (setting [4]) turned out to be 4.26 ± 1.23 min; in the assay on Kunming mice [1] (setting [5]) it was 3.93 ± 1.15 min; with Kunming mice [1] (setting [6]) it was 3.83 ± 1.21 min. Moreover, the “Number of sleeping animals” value amounted to 4 in the assay on Kunming mice [2] (setting [7]), 6 with Kunming mice [2] (setting [8]) and 7 in the assay with Kunming mice [2] (setting [9]). Moreover, the figures for the “rate of sleeping (%)” value in the assay on Kunming mice [2] (setting [7]), with Kunming mice [2] (setting [8]) and with Kunming mice [2] (setting [9]) were 40* %, 60** % and 70** %, respectively. The “Times of activities in 1 h after drug administration/10 min” value (shortened to “Times of activities in 1 h”) was 293.2 ± 47.1 /10 min in the assay on Kunming mice [3] (25 mg/kg), 280.7 ± 61.3 /10 min in the assay with Kunming mice [3] (50 mg/kg) and 247.2 ± 35.6 /10 min in the assay with Kunming mice [3] (100 mg/kg). Also, the “Times of activities in 2 h after drug administration/10 min” value (from here on “Times of activities in 2 h”) was 278.5 ± 42.8 /10 min in the assay on Kunming mice [3] (25 mg/kg), 278.6 ± 47.5 /10 min with Kunming mice [3] (50 mg/kg) and 225.3 ± 44.2 /10 min with Kunming mice [3] (100 mg/kg). Also, the “Times of activities in 24 h after drug administration/10 min” value (“Times of activities in 24 h” for short) in the assay on Kunming mice [3] (25 mg/kg) is 302.8 ± 67.2 /10 min; with Kunming mice [3] (50 mg/kg) it was 309.2 ± 81.3 /10 min; in the assay with Kunming mice [3] (100 mg/kg), 291.5 ± 69.5 /10 min.
As to `COc1ccc(-c2cc(=O)c3c(OC)c(OC)c(OC)c(OC)c3o2)cc1OC` [Example 14, 5,6,7,8,3′,4′-hexamethoxyl-flavone], the values for the duration of sleep in the assay with Kunming mice [1] (setting [4]), with Kunming mice [1] (setting [5]) and with Kunming mice [1] (setting [6]) were 34.12 ± 28.26 min, 57.34 ± 19.33 min and 60.26 ± 32.36 min, respectively. Further, the time to sleep in the assay with Kunming mice [1] (setting [4]) is 4.78 ± 1.81 min; in the assay on Kunming mice [1] (setting [5]) it was 4.25 ± 1.55 min; with Kunming mice [1] (setting [6]), 3.93 ± 1.57 min. Also, the “Number of sleeping animals” value in the assay with Kunming mice [2] (setting [7]) is 4; with Kunming mice [2] (setting [8]), 6; with Kunming mice [2] (setting [9]) it was 7. In addition, the “rate of sleeping (%)” value in the assay on Kunming mice [2] (setting [7]) is listed as 40* %; in the assay on Kunming mice [2] (setting [8]), 60** %; with Kunming mice [2] (setting [9]) it was 70** %. In addition, the results for the “Times of activities in 1 h” value with Kunming mice [3] (25 mg/kg), with Kunming mice [3] (50 mg/kg) and in the assay on Kunming mice [3] (100 mg/kg) were 289.9 ± 42.3 /10 min, 178.6 ± 40.2 /10 min and 159.1 ± 48.1 /10 min, respectively. In addition, the “Times of activities in 2 h” value is reported as 281.1 ± 41.6 /10 min in the assay with Kunming mice [3] (25 mg/kg), 183.3 ± 51.3 /10 min with Kunming mice [3] (50 mg/kg) and 133.9 ± 49.7 /10 min in the assay with Kunming mice [3] (100 mg/kg). For the same molecule, the entries for the “Times of activities in 24 h” value with Kunming mice [3] (25 mg/kg), with Kunming mice [3] (50 mg/kg) and in the assay with Kunming mice [3] (100 mg/kg) were 313.2 ± 74.4 /10 min, 324.7 ± 79.6 /10 min and 322.6 ± 61.2 /10 min, respectively.
In the case of `COc1cc(-c2cc(=O)c3c(OC)c(OC)c(OC)c(OC)c3o2)cc(OC)c1OC` [Example 15, 5,6,7,8,3′,4′,5′-heptamethoxyl-flavone], the results for the duration of sleep with Kunming mice [1] (setting [4]), in the assay with Kunming mice [1] (setting [5]) and in the assay with Kunming mice [1] (setting [6]) were 39.93 ± 15.22 min, 51.53 ± 21.35 min and 58.25 ± 21.48 min, respectively. For the same molecule, the values for the time to sleep in the assay on Kunming mice [1] (setting [4]), in the assay with Kunming mice [1] (setting [5]) and in the assay with Kunming mice [1] (setting [6]) were 4.31 ± 1.65 min, 3.53 ± 1.22 min and 3.29 ± 1.58 min, respectively. In addition, the results for the “Number of sleeping animals” value with Kunming mice [2] (setting [7]), in the assay on Kunming mice [2] (setting [8]) and in the assay on Kunming mice [2] (setting [9]) were 3, 6 and 8, respectively. In addition, the “rate of sleeping (%)” value was 30% with Kunming mice [2] (setting [7]), 60** % with Kunming mice [2] (setting [8]) and 80*** % in the assay with Kunming mice [2] (setting [9]). Further, the “Times of activities in 1 h” value in the assay on Kunming mice [3] (25 mg/kg) is on record as 287.1 ± 39.1 /10 min; in the assay with Kunming mice [3] (50 mg/kg), 254.7 ± 41.2 /10 min; in the assay with Kunming mice [3] (100 mg/kg), 179.6 ± 44.3 /10 min. The “Times of activities in 2 h” value with Kunming mice [3] (25 mg/kg) is on record as 255.1 ± 42.9 /10 min; in the assay with Kunming mice [3] (50 mg/kg), 239.9 ± 42.6 /10 min; in the assay with Kunming mice [3] (100 mg/kg) it was 152.5 ± 36.9 /10 min. Besides, the “Times of activities in 24 h” value was 308.5 ± 75.2 /10 min in the assay with Kunming mice [3] (25 mg/kg), 317.4 ± 95.6 /10 min with Kunming mice [3] (50 mg/kg) and 287.8 ± 89.1 /10 min in the assay with Kunming mice [3] (100 mg/kg).
In the case of `O=c1cc(-c2cc(O)c(Oc3ccccc3)c(CCCCCCCCCCCCCCCCCCCCCl)c2)oc2cc(C#Cc3ccccc3)cc([N+](=O)[O-])c12` [Example 16], the duration of sleep stood at 25.69 ± 27.26 min with Kunming mice [1] (setting [4]), 48.11 ± 25.41 min with Kunming mice [1] (setting [5]) and 55.62 ± 19.72 min in the assay with Kunming mice [1] (setting [6]). For the same molecule, the time to sleep is on record as 5.48 ± 2.25 min in the assay on Kunming mice [1] (setting [4]), 4.21 ± 1.53 min in the assay on Kunming mice [1] (setting [5]) and 3.86 ± 1.45 min with Kunming mice [1] (setting [6]). For the same molecule, the results for the “Number of sleeping animals” value in the assay with Kunming mice [2] (setting [7]), in the assay with Kunming mice [2] (setting [8]) and in the assay with Kunming mice [2] (setting [9]) were 2, 4 and 6, respectively. For the same molecule, the figures for the “rate of sleeping (%)” value in the assay with Kunming mice [2] (setting [7]), in the assay on Kunming mice [2] (setting [8]) and with Kunming mice [2] (setting [9]) were 20%, 40* % and 60** %, respectively. Also, the “Times of activities in 1 h” value was 319.2 ± 55.4 /10 min with Kunming mice [3] (25 mg/kg), 295.5 ± 41.3 /10 min in the assay with Kunming mice [3] (50 mg/kg) and 273.4 ± 48.3 /10 min in the assay with Kunming mice [3] (100 mg/kg). Further, the entries for the “Times of activities in 2 h” value in the assay on Kunming mice [3] (25 mg/kg), in the assay with Kunming mice [3] (50 mg/kg) and with Kunming mice [3] (100 mg/kg) were 290.6 ± 41.2 /10 min, 250.4 ± 41.4 /10 min and 224.7 ± 46.3 /10 min, respectively. Also, the “Times of activities in 24 h” value in the assay with Kunming mice [3] (25 mg/kg) was 313.5 ± 68.2 /10 min; in the assay with Kunming mice [3] (50 mg/kg), 314.1 ± 82.3 /10 min; in the assay with Kunming mice [3] (100 mg/kg) it was 324.7 ± 79.7 /10 min.
For `C=Cc1cc(-c2cc(=O)c3c(C4CCSC4)cc(C(N)=O)cc3o2)cc(N)c1CC` (stereo not drawn) [Example 17], the results for the duration of sleep in the assay on Kunming mice [1] (setting [4]), in the assay on Kunming mice [1] (setting [5]) and with Kunming mice [1] (setting [6]) were 32.56 ± 25.95 min, 45.62 ± 21.08 min and 57.86 ± 25.22 min, respectively. Moreover, the time to sleep amounted to 5.55 ± 1.45 min with Kunming mice [1] (setting [4]), 3.97 ± 1.26 min with Kunming mice [1] (setting [5]) and 3.96 ± 1.14 min with Kunming mice [1] (setting [6]). In addition, the “Number of sleeping animals” value in the assay with Kunming mice [2] (setting [7]) amounted to 3; with Kunming mice [2] (setting [8]) it was 6; in the assay on Kunming mice [2] (setting [9]), 7. In addition, the “rate of sleeping (%)” value in the assay with Kunming mice [2] (setting [7]) is 30%; in the assay with Kunming mice [2] (setting [8]), 60** %; with Kunming mice [2] (setting [9]) it was 70** %. The “Times of activities in 1 h” value in the assay with Kunming mice [3] (25 mg/kg) is 284.9 ± 49.3 /10 min; in the assay on Kunming mice [3] (50 mg/kg), 176.6 ± 50.2 /10 min; in the assay on Kunming mice [3] (100 mg/kg), 153.1 ± 38.4 /10 min. Also, the “Times of activities in 2 h” value is on record as 280.1 ± 42.7 /10 min in the assay on Kunming mice [3] (25 mg/kg), 189.3 ± 57.3 /10 min with Kunming mice [3] (50 mg/kg) and 135.9 ± 48.7 /10 min in the assay on Kunming mice [3] (100 mg/kg). For the same molecule, the “Times of activities in 24 h” value is reported as 306.2 ± 81.3 /10 min in the assay with Kunming mice [3] (25 mg/kg), 291.5 ± 70.0 /10 min with Kunming mice [3] (50 mg/kg) and 302.1 ± 89.0 /10 min in the assay on Kunming mice [3] (100 mg/kg).
